Here are results for seven molecules from patent publication US20210038607A1, “OXADIAZOLYLTHIOPHENE DERIVATIVES USEFUL AS HISTONE DEACETYLASE INHIBITORS” (Karus Therapeutics Limited, priority 2018, published 2021).

One experiment deals with T1, Human HDAC1 (Homo sapiens, UniProt Q13547).
T1 construct: full length with C-terminal His-tag and C-terminal FLAG-tag; His (C); FLAG (C); host or cells: baculovirus expression system
The experiment in a line: HDAC1 biochemical assay, AMC-labeled peptide substrate. The note with it: read-out: HDAC Isoform IC50 (nM) 1. Put shortly:
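Baculovirus-expressed full-length human HDAC1 with His and FLAG tags, 0.3 ng/ul, incubated 1 h at 30° C with compound and 50 μM RHKK(Ac)AMC in Tris pH 8.0 buffer with BSA and 1% DMSO. Developer then releases AMC from deacetylated substrate; fluorescence read at 360/460 nm.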

A further experiment has as its target T2, Human HDAC4 (Homo sapiens, UniProt P56524).
T2 construct: amino acids 627-1085 with N-terminal GST tag; GST (N); host or cells: baculovirus expression system
The experiment in a line: HDAC4 biochemical assay, class IIa-specific substrate. As to conditions: read-out: HDAC Isoform IC50 (nM) 4. Put shortly: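 GST-tagged human HDAC4 (aa 627-1085, baculovirus) at 0.004 ng/ul was incubated 30 min at room temperature with 50 μM class IIa-specific substrate BOC-Lys(trifluoroacetyl)-AMC in Tris-HCl pH 8.0 buffer with BSA, 1% DMSO. Developer then released AMC, read at 360/460 nm.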

Another experiment deals with T3, Human HDAC5 (Homo sapiens, UniProt Q9UQL6).
T3 construct: full length with C-terminal His tag, MW=51.1 kDa; His (C); host or cells: baculovirus expression system
The experiment in a line: HDAC5 biochemical assay, class IIa-specific substrate. As to conditions: read-out: HDAC Isoform IC50 (nM) 5. Put shortly:
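Full-length C-terminal His-tagged HDAC5 from baculovirus (0.05 ng/ul) incubated 30 min at room temperature with 50 μM Boc-Lys(trifluoroacetyl)-AMC and compound, Tris pH 8.0 buffer with BSA, 1% DMSO. Developer then releases AMC; fluorescence 360/460 nm.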

The target in the next experiment is T4, Recombinant human HDAC6 (Homo sapiens, UniProt Q9UBN7).
T4 construct: full length, MW=159 kDa; GST (N); host or cells: Sf9 insect cells (baculovirus)
T4 sequence (Q9UBN7 1-1215): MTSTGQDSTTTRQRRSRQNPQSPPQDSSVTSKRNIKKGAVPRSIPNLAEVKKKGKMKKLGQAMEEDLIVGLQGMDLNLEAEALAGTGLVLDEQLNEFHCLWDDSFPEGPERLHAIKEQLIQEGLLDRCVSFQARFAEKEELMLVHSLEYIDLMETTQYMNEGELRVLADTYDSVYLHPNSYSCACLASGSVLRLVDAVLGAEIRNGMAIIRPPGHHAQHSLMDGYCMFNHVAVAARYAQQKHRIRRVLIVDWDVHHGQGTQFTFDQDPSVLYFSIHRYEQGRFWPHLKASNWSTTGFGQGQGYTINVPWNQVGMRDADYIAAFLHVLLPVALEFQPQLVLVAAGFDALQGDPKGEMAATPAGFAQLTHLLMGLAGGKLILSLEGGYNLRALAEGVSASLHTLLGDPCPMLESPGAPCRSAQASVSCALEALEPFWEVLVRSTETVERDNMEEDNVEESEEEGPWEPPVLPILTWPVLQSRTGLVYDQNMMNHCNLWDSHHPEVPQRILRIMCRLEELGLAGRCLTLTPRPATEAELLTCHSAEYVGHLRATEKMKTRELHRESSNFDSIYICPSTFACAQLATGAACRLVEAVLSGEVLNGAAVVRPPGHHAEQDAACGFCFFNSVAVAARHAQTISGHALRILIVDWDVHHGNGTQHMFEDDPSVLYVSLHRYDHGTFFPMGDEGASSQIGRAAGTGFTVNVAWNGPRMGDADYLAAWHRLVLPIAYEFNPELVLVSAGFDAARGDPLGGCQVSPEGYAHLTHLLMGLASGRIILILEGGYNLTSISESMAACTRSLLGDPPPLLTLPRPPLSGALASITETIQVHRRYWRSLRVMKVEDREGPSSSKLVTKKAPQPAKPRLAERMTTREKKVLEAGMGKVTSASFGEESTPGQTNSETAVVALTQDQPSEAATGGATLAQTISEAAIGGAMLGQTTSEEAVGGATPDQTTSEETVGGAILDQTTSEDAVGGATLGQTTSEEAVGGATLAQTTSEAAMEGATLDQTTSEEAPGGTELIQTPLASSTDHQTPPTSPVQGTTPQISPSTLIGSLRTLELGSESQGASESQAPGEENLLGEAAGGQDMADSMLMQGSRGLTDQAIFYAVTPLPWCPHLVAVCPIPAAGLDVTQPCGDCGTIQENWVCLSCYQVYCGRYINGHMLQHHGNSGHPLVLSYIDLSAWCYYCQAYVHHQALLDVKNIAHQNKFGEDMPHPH
Nature of the experiment: HDAC6 biochemical assay, AMC-labeled peptide substrate. As to conditions: HDAC6; read-out: HDAC Isoform IC50 (nM) 6. The essentials: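 Two-step fluorogenic read-out: enzyme deacetylates 50 μM RHKK(Ac)AMC for 1 h at 30° C in pH 8.0 Tris buffer with BSA and 1% DMSO, then developer cleavage gives signal at Ex 360/Em 460. Enzyme: 0.3 ng/ul recombinant full-length human HDAC6, GST-tagged, Sf9-expressed.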

In the next experiment the target is T5, Human HDAC7 (Homo sapiens, UniProt Q8WUI4).
T5 construct: (a.a. 518-end) with N-terminal GST tag; GST (N); host or cells: baculovirus expression system
T5 sequence (Q8WUI4 518-952 limits assumed): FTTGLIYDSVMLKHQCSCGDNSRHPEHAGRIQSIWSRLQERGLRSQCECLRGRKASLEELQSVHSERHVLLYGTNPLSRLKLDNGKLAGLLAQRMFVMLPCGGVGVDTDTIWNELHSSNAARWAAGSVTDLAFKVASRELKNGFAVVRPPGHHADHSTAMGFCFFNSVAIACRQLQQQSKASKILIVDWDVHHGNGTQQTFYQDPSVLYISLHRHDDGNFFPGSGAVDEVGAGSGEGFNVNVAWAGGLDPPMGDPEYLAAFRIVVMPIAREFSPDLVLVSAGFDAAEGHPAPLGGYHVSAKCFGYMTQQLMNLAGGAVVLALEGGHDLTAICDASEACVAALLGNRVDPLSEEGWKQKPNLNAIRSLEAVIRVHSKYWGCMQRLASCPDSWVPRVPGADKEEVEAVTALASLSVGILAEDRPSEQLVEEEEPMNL
Nature of the experiment: HDAC7 biochemical assay, class IIa-specific substrate. As to conditions: read-out: HDAC Isoform IC50 (nM) 7. Put shortly: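 GST-tagged HDAC7 (a.a. 518-end, baculovirus-expressed) at 0.001 ng/ul with 50 μM Boc-Lys(trifluoroacetyl)-AMC substrate, 30 min at room temperature in pH 8.0 Tris buffer with BSA, 1% DMSO final. Developer then releases AMC; fluorescence read at 360/460 nm.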

A further experiment has as its target T6, Human HDAC9 (Homo sapiens, UniProt Q9UKV0).
T6 construct: amino acids 604-1066 with C-terminal His tag; His (C); host or cells: baculovirus expression system
Nature of the experiment: HDAC9 biochemical assay, class IIa-specific substrate. The note with it: read-out: HDAC Isoform IC50 (nM) 9. The essentials: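 HDAC9 residues 604-1066 (C-terminal His tag, baculovirus-expressed) at 0.06 ng/ul with 50 μM class IIa substrate Boc-Lys(trifluoroacetyl)-AMC in Tris-HCl pH 8.0 buffer with BSA and 1% DMSO. 30 min at room temperature, then developer added; fluorescence read at 360/460 nm Ex/Em.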

T3 sequence (Q9UQL6 656-1122 limits assumed): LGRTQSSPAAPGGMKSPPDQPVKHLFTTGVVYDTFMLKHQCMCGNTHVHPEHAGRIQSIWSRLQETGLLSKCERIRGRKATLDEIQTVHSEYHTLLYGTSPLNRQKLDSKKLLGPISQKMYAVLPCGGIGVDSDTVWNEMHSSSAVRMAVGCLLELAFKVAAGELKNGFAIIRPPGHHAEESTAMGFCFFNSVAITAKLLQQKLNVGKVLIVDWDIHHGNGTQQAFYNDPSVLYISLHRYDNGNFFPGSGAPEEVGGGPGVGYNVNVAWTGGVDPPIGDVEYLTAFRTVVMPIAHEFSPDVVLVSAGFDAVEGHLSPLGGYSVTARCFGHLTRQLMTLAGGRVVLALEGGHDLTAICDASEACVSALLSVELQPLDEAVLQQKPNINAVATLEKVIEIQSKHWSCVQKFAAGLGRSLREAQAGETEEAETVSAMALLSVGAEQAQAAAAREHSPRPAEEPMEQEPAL
T1 sequence (Q13547 whole entry): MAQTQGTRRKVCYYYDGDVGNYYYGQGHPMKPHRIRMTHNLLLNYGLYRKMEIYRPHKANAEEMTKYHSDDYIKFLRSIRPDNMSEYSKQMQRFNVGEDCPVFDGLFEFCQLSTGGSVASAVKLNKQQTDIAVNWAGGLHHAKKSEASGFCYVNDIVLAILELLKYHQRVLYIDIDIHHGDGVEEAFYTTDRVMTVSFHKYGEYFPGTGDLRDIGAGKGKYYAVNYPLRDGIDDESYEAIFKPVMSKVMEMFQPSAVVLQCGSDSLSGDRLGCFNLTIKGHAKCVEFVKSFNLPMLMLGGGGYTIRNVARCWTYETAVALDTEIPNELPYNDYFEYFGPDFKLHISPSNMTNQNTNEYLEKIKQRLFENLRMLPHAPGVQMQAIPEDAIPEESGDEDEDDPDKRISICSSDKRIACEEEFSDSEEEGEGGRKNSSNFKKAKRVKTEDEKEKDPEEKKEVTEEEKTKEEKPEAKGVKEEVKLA
T2 sequence (P56524 627-1084 limits assumed): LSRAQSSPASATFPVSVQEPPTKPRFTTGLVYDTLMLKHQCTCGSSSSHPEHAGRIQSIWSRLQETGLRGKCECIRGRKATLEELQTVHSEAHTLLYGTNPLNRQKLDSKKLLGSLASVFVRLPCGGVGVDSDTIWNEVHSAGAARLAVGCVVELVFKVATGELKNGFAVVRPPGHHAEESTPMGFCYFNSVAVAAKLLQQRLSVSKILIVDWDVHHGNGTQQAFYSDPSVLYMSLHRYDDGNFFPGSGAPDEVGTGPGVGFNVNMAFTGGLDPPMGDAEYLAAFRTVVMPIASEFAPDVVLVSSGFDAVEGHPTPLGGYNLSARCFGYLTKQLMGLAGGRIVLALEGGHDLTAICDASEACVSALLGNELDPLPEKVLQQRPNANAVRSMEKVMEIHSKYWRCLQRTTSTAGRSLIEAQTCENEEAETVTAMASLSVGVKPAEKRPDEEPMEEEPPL
T6 sequence (Q9UKV0 604-1066 isoform Q9UKV0-5): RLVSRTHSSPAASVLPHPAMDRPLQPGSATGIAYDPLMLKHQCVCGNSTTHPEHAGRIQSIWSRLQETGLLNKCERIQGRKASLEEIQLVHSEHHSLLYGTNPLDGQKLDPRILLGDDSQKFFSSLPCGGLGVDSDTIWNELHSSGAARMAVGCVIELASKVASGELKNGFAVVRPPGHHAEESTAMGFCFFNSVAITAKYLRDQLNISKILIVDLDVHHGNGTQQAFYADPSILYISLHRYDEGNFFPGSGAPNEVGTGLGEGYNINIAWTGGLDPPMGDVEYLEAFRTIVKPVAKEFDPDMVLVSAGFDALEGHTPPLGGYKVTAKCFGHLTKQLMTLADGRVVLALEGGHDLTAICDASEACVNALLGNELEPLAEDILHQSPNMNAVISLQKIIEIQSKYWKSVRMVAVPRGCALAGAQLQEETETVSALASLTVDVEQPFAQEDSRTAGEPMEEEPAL

As to `FC(F)(F)c1nc(-c2ccc(CN(c3cnccn3)c3ccc4nccn4n3)s2)no1` [Example DT, N-{Imidazo[1,2-b]pyridazin-6-yl}-N-({5-[5-(trifluoromethyl)-1,2,4-oxadiazol-3-yl]thiophen-2-yl}methyl)pyrazin-2-amine], the IC50 (commonly the concentration that inhibits the measured activity by half) was over 10000 nM on Human HDAC1; at most 1000 nM on Human HDAC4; at most 500 nM at Human HDAC5; at most 1000 nM at Recombinant human HDAC6; at most 500 nM on Human HDAC7; at most 1000 nM at Human HDAC9.
Regarding `FC(F)(F)c1nc(-c2ccc(CN(c3cnccn3)c3ccc4nncn4n3)s2)no1` [Example DU, N-{[1,2,4]Triazolo[4,3-b]pyridazin-6-yl}-N-({5-[5-(trifluoromethyl)-1,2,4-oxadiazol-3-yl]thiophen-2-yl}methyl)pyrazin-2-amine], the IC50 at Human HDAC1 is over 10000 nM; at Human HDAC4, at most 10000 nM; at Human HDAC5, at most 10000 nM; at Recombinant human HDAC6, at most 10000 nM; at Human HDAC7, at most 1000 nM; on Human HDAC9, at most 10000 nM.
Take `COc1cnnc(N(Cc2ccc(-c3noc(C(F)(F)F)n3)s2)c2cnccn2)c1` [Example DV, 5-Methoxy-N-(pyrazin-2-yl)-N-({5-[5-(trifluoromethyl)-1,2,4-oxadiazol-3-yl]thiophen-2-yl}methyl)pyridazin-3-amine]: the 50% inhibitory concentration (IC50) on Human HDAC1 is over 10000 nM; on Human HDAC4, at most 10000 nM; on Human HDAC5, at most 1000 nM; at Recombinant human HDAC6, at most 10000 nM; at Human HDAC7, at most 10000 nM; at Human HDAC9, at most 10000 nM.
As for `FC(F)(F)c1cnnc(N(Cc2ccc(-c3noc(C(F)(F)F)n3)s2)c2ccccn2)c1` [Example EG, N-(Pyridin-2-yl)-5-(trifluoromethyl)-N-({5-[5-(trifluoromethyl)-1,2,4-oxadiazol-3-yl]thiophen-2-yl}methyl)pyridazin-3-amine], the concentration for half-maximal inhibition (IC50) was over 10000 nM at Human HDAC1; at most 10000 nM on Human HDAC4; at most 10000 nM on Human HDAC5; at most 10000 nM at Recombinant human HDAC6; over 10000 nM at Human HDAC7; over 10000 nM at Human HDAC9.
For `FC(F)(F)c1cnnc(N(Cc2ccc(-c3noc(C(F)(F)F)n3)s2)c2ncccc2N2CCOCC2)c1` [Example EH, N-[3-(Morpholin-4-yl)pyridin-2-yl]-5-(trifluoromethyl)-N-({5-[5-(trifluoromethyl)-1,2,4-oxadiazol-3-yl]thiophen-2-yl}methyl)pyridazin-3-amine], the IC50 on Human HDAC1 was over 10000 nM; at Human HDAC4, at most 10000 nM; on Human HDAC5 it was at most 10000 nM; on Recombinant human HDAC6, at most 10000 nM; on Human HDAC7 it was at most 10000 nM; on Human HDAC9, over 10000 nM.
For `FC(F)(F)c1cnnc(N(Cc2ccc(-c3noc(C(F)(F)F)n3)s2)c2cccnc2)c1` [Example EI, N-(Pyridin-3-yl)-5-(trifluoromethyl)-N-({5-[5-(trifluoromethyl)-1,2,4-oxadiazol-3-yl]thiophen-2-yl}methyl)pyridazin-3-amine], the IC50 at Human HDAC1 is over 10000 nM; at Human HDAC4, at most 10000 nM; at Human HDAC5, at most 1000 nM; on Recombinant human HDAC6, at most 10000 nM; on Human HDAC7, at most 10000 nM; on Human HDAC9, at most 10000 nM.
`FC(F)(F)c1cnnc(N(Cc2ccc(-c3noc(C(F)(F)F)n3)s2)c2ccncc2)c1` [Example EJ, N-(Pyridin-4-yl)-5-(trifluoromethyl)-N-({5-[5-(trifluoromethyl)-1,2,4-oxadiazol-3-yl]thiophen-2-yl}methyl)pyridazin-3-amine]: the IC50 at Human HDAC1 is over 10000 nM; at Human HDAC4, at most 10000 nM; at Human HDAC5, at most 10000 nM; at Recombinant human HDAC6, at most 10000 nM; at Human HDAC7, at most 10000 nM; on Human HDAC9 it was at most 10000 nM.
